From patent US11166948B2, “Pharmaceutical composition for treatment of aortic aneurysm” (National University Corporation Hamamatsu University School …, priority 2017, dated 2021)

Columns and labels:
[1] = system: aortic wall hypoxia-induced rat AAA model; test: Action of Compound 1 in aortic wall hypoxia-induced rat AAA model; format: in vivo; conditions: vs control group; for mortality due to rupture (non-rupture survival rate): day of operation to Day 28 post operation
From the text: The action of Compound 1 in a rat AAA model (Non-Patent Document 3) induced by operation in which the aortic wall was separated from the surrounding tissue, a catheter was inserted, and then the abdominal aorta was ligated together with a catheter with a thread was studied.
In this test, Compound 1 was manufactured according to the method described in Patent Document 1, and mixed, in a proportion of 0.15%, with a normal diet (FR2, manufactured by Funabashi Farm Co., Ltd.), and the Compound 1-mixed diet was used.
Sprague-Dawley male rats (300 to 350 g: Japan SLC, Inc.) were used in the experiment. The rats were reared at room temperature of 25° C. ±1° C., and allowed to freely take the feed and water.
The model was created according to the method described in Non-Patent Document 3. Specifically, a rat AAA model was created by separating the rat aortic wall from the surrounding tissue, inserting a polyurethane catheter, and then ligating the abdominal aorta together with a plastic catheter with a monofilament thread, and inducing AAA.
The rat models were divided into two groups: a normal diet administration group (hereinafter referred to as “control group”) (n=20) and a 0.15% Compound 1-mixed diet administration group (hereinafter referred to as “Compound 1 group”) (n=20). The normal diet or Compound 1-mixed diet was freely fed in a period from one week before the AAA model creation operation (7 days before operation) to the end of the experiment.
In both the groups, up to 28 days post operation, the aneurysm diameter was measured by echo and comparison in survival was made.
In addition, the surviving animals were sacrificed after 28 days to analyze the AAA pathological tissue.
The AAA maximum short-axis diameter was measured with an ultrasonic diagnostic apparatus (Vevo770, manufactured by VisualSonics Inc.) on the day of operation and Day 7, Day 14, Day 21 and Day 28 post operation.
In the same models as in Example 1, the effect of Compound 1 on the formed AAA was studied.
Specifically, the administration of the Compound 1-mixed diet was started one week after the AAA model creation operation (7 days after operation) until the end of the experiment in this example, in place of one week before the AAA model creation operation (7 days before operation) until the end of the experiment in Example 1 (3). In addition, on Day 7 post operation, rats having an aortic aneurysm diameter of 3 mm or more were selected by measurement with an ultrasonic diagnostic apparatus (Vevo770, manufactured by VisualSonics Inc.), and then the rats were randomly divided into two groups: a normal diet administration group (hereinafter referred to as “control group”) (n=18) and a 0.15% Compound 1-mixed diet administration group (hereinafter referred to as “Compound 1 group”) (n=15). […]

[2] = system: elastase-induced model rats; conditions: preventive administration before AAA formation; cited from earlier work

For O=C(NCCCOc1ccc2[nH]c(=O)ccc2c1)N(C1CC1)[C@@H]1CCCC[C@H]1O [Compound 1, (−)-6-[3-[3-cyclopropyl-3-[(1R,2R)-2-hydroxycyclohexyl]ureido]propoxy]-2(1H)-quinolinone], the “aneurysm diameter (AAA maximum short-axis diameter)” value ([1]; Example 1: 0.15% Compound 1-mixed diet from 7 days before operation to end of experiment, echo up to Day 28 post operation, no significant difference) was “tendency toward suppression of the increase in the aneurysm diameter”, the “mortality due to rupture (non-rupture survival rate)” value ([1]; Example 1: 0.15% Compound 1-mixed diet from 7 days before operation, Log Rank p=0.036) was “significantly lower” and the “mortality due to rupture (non-rupture survival rate)” value ([1]; Example 2: 0.15% Compound 1-mixed diet from 7 days after operation (formed AAA), Log Rank p=0.055) was “lower”. For the same compound, the “aneurysm diameter (AAA maximum short-axis diameter)” value ([1]; Example 2: 0.15% Compound 1-mixed diet from 7 days after operation (formed AAA, diameter 3 mm or more), Day 7 to Day 14 post operation, p=0.014) was “significantly lower”.

In the case of O=C1CCc2cc(OCCCCc3nnnn3C3CCCCC3)ccc2N1 [cilostazol], the AAA dilatation [2] is given as “suppresses AAA dilatation”.
